Test results: patent US20230293526A1, “METHOD FOR TREATING CANCER WITH A REVERSE TRANSCRIPTASE INHIBITOR” (PrimeFour Therapeutics, Inc., priority 2020, published 2023)

Tests used:
[1] = system: cancer cell lines; test: Cancer cell proliferation activity of representative nucleosides, CellTiterGlo 72 h (Example 7, Tables 8 and 9); type: cell-based; settings: 72 h
Procedure, shortened: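 Percent viability was set against 0.1% DMSO (100%) and 10 μM staurosporine (0%), with signal from CellTiterGlo luminescence. Dose-response treatment began one day after seeding and lasted 72 h at 37° C under 5% or 10% CO2, with 0.1% final DMSO.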

[2] = system: human LINE-1; test: Human LINE-1 (L1) retrotransposition dual-luciferase reporter assay in HeLa cells; type: cell-based; settings: Homo sapiens, HeLa, 72 h, read-out: Human LINE-1 IC50 (Human L1 activity inhibition)
Procedure, shortened: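 Compound dilution series (final DMSO 0.2%) added right after transfecting HeLa cells with the pYX017 L1 dual-luciferase reporter; 72 h culture at 37 °C, 5% CO2, triplicates. IC50 fitted by non-linear logistic regression to firefly-to-Renilla luminescence ratio (×10,000).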

CC[C@]1(CO)O[C@@H](n2cnc3c(N)nc(N)nc32)C[C@@H]1O [compound 25]
IC50 ([1]; 72 h, 5637, bladder): 3.52 µM
IC50 ([1]; CLS439, bladder): > 50 µM
IC50 ([1]; HS729, muscle): 3.42 µM
IC50 ([1]; J82, bladder): > 50 µM
IC50 ([1]; JAR, placenta): > 50 µM
IC50 ([1]; MT3, breast): 1.62 µM
IC50 ([1]; PC3, prostate): 3.02 µM
IC50 ([1]; RD, muscle): 3.39 µM
IC50 ([1]; T24, bladder): > 50 µM
IC50 ([1]; Homo sapiens, 22Rv1, 72 h, 22RV1, prostate): > 50 µM
IC50 ([1]; Homo sapiens, 786-0, 72 h, 786O, kidney): > 50 µM
IC50 ([1]; Homo sapiens, A204, 72 h, A204, muscle): 1.58 µM
IC50 ([1]; Homo sapiens, A549, 72 h, A549, lung): 3.25 µM
IC50 ([1]; Homo sapiens, A673, 72 h, A673, bone): > 50 µM
IC50 ([1]; Homo sapiens, A2780, 72 h, A2780, ovary): > 50 µM
IC50 ([1]; Homo sapiens, A-375, 72 h, A375, skin): 2.34 µM
IC50 ([1]; Homo sapiens, A-431, 72 h, A431, skin): > 50 µM
IC50 ([1]; Homo sapiens, ACHN, kidney): 5.89 µM
IC50 ([1]; Homo sapiens, ASPC1, 72 h, ASPC1, pancreas): 5.31 µM
IC50 ([1]; Homo sapiens, BT-20, 72 h, BT20, breast): > 50 µM
IC50 ([1]; Homo sapiens, BXPC-3, 72 h, BXPC3, pancreas): 3.54 µM
IC50 ([1]; Homo sapiens, C-33-A, C33A, endometrial): 3.7 µM
IC50 ([1]; Homo sapiens, CAKI-1, 72 h, CAKI1, kidney): 5.33 µM
IC50 ([1]; Homo sapiens, COLO 205, 72 h, COLO205, colon): 1.8 µM
IC50 ([1]; Homo sapiens, COLO-678, 72 h, COLO678, colon): > 50 µM
IC50 ([1]; Homo sapiens, Ca-Ski, CASKI, endometrial): > 50 µM
IC50 ([1]; Homo sapiens, Caco-2, 72 h, CACO2, colon): > 50 µM
IC50 ([1]; Homo sapiens, Calu-6, 72 h, CALU6, lung): 6.13 µM
IC50 ([1]; Homo sapiens, DLD-1, 72 h, DLD1, colon): > 50 µM
IC50 ([1]; Homo sapiens, DU-145, 72 h, DU145, prostate): 6.33 µM
IC50 ([1]; Homo sapiens, EFO-21, 72 h, EFO21, ovary): > 50 µM
IC50 ([1]; Homo sapiens, EJ-28, 72 h, EJ28, bladder): > 50 µM
IC50 ([1]; Homo sapiens, Granta-519, 72 h, GRANTA-519, hematological): 0.89 µM
IC50 ([1]; Homo sapiens, HCT-15, 72 h, HCT15, colon): > 50 µM
IC50 ([1]; Homo sapiens, HCT-116, 72 h, HCT116, colon): 3.2 µM
IC50 ([1]; Homo sapiens, HEK293, 72 h, HEK293, kidney): 6.09 µM
IC50 ([1]; Homo sapiens, HL-60, 72 h, HL-60, hematological): 3.46 µM
IC50 ([1]; Homo sapiens, HT-29, 72 h, HT29, colon): > 50 µM
IC50 ([1]; Homo sapiens, HT-1080, 72 h, HT1080, connective tissue): 3.72 µM
IC50 ([1]; Homo sapiens, HeLa, endometrial): 3.1 µM
IC50 ([1]; Homo sapiens, HepG2, 72 h, HEPG2, liver): > 50 µM
IC50 ([1]; Homo sapiens, Hs-578T, HS578T, breast): > 50 µM
IC50 ([1]; Homo sapiens, IGROV-1, 72 h, IGROV1, ovary): > 50 µM
IC50 ([1]; Homo sapiens, IMR-90, 72 h, IMR90, lung): 3.47 µM
IC50 ([1]; Homo sapiens, JEG-3, 72 h, JEG3, placenta): > 50 µM
IC50 ([1]; Homo sapiens, JIMT-1, 72 h, JIMT1, breast): 5.55 µM
IC50 ([1]; Homo sapiens, K562, 72 h, K-562, hematological): > 50 µM
IC50 ([1]; Homo sapiens, Kasumi 1, 72 h, KASUMI-1, hematological): 0.18 µM
IC50 ([1]; Homo sapiens, L-363, 72 h, L-363, hematological): 3.29 µM
IC50 ([1]; Homo sapiens, LoVo, colon): > 50 µM
IC50 ([1]; Homo sapiens, MCF7, 72 h, MCF7, breast): 5.68 µM
IC50 ([1]; Homo sapiens, MDA-MB-231, 72 h, MDAMB231, breast): 2.85 µM
IC50 ([1]; Homo sapiens, MDA-MB-435, 72 h, MDAMB435, skin): > 50 µM
IC50 ([1]; Homo sapiens, MDA-MB-436, 72 h, MDAMB436, breast): 5.23 µM
IC50 ([1]; Homo sapiens, MDA-MB-468, 72 h, MDAMB468, breast): > 50 µM
IC50 ([1]; Homo sapiens, MG-63, 72 h, MG63, bone): 4.11 µM
IC50 ([1]; Homo sapiens, MHH-ES-1, 72 h, MHHES1, bone): 3.92 µM
IC50 ([1]; Homo sapiens, MIA PaCa-2, 72 h, MIAPACA2, pancreas): > 50 µM
IC50 ([1]; Homo sapiens, MINO, hematological): 1.51 µM
IC50 ([1]; Homo sapiens, MV4-11, 72 h, MV4-11, hematological): 2.25 µM
IC50 ([1]; Homo sapiens, NCI-H23, 72 h, NCI-H23, lung): 1.68 µM
IC50 ([1]; Homo sapiens, NCI-H82, 72 h, NCIH82, lung): > 50 µM
IC50 ([1]; Homo sapiens, NCI-H292, 72 h, NCIH292, lung): 5.22 µM
IC50 ([1]; Homo sapiens, NCI-H460, 72 h, NCIH460, ung): > 50 µM
IC50 ([1]; Homo sapiens, OVCAR-3, 72 h, OVCAR3, ovary): 1.82 µM
IC50 ([1]; Homo sapiens, OVCAR-4, 72 h, OVCAR4, ovary): 3.27 µM
IC50 ([1]; Homo sapiens, PANC-1, 72 h, PANC1, pancreas): > 50 µM
IC50 ([1]; Homo sapiens, PLC-PRF-5, 72 h, PLCPRF5, liver): > 50 µM
IC50 ([1]; Homo sapiens, Panc1005, 72 h, PANC1005, pancreas): 6.31 µM
IC50 ([1]; Homo sapiens, Ramos, hematological): 1.85 µM
IC50 ([1]; Homo sapiens, SAOS-2, 72 h, SAOS2, bone): 1.73 µM
IC50 ([1]; Homo sapiens, SF-268, 72 h, SF268, brain): > 50 µM
IC50 ([1]; Homo sapiens, SF-295, 72 h, SF295, brain): > 50 µM
IC50 ([1]; Homo sapiens, SK-BR-3, 72 h, SKBR3, breast): 3.13 µM
IC50 ([1]; Homo sapiens, SK-HEP1, 72 h, SKHEP1, liver): 4.99 µM
IC50 ([1]; Homo sapiens, SK-LMS-1, 72 h, SKLMS1, uterus): > 50 µM
IC50 ([1]; Homo sapiens, SK-MEL-5, 72 h, SKMEL5, skin): > 50 µM
IC50 ([1]; Homo sapiens, SK-MEL-28, 72 h, SKMEL28, skin): 3.1 µM
IC50 ([1]; Homo sapiens, SK-N-AS, SKNAS, brain): 0.75 µM
IC50 ([1]; Homo sapiens, SK-N-SH, SKNSH, brain): 0.6 µM
IC50 ([1]; Homo sapiens, SK-OV-3, 72 h, SKOV3, ovary): 2.37 µM
IC50 ([1]; Homo sapiens, SNB-75, 72 h, SNB75, brain): > 50 µM
IC50 ([1]; Homo sapiens, SU-DHL10, 72 h, SU-DHL-10, hematological): 4.83 µM
IC50 ([1]; Homo sapiens, SU-DHL-6, 72 h, SU-DHL-6, hematological): 6.01 µM
IC50 ([1]; Homo sapiens, SW-620, 72 h, SW620, colon): > 50 µM
IC50 ([1]; Homo sapiens, TE-671, 72 h, TE671, muscle): 3.05 µM
IC50 ([1]; Homo sapiens, THP-1, 72 h, THP-1, hematological): 3.23 µM
IC50 ([1]; Homo sapiens, U2OS, bone): > 50 µM
IC50 ([1]; Homo sapiens, U-87 MG, U87MG, brain): 5.24 µM
IC50 ([1]; Homo sapiens, UMUC3, 72 h, UMUC3, bladder): > 50 µM
IC50 ([1]; Homo sapiens, UO-31, 72 h, UO31, kidney): > 50 µM
IC50 ([1]; Homo sapiens, WSU-NHL, hematological): 2.55 µM
IC50 ([1]; NCI-H358M, NCIH358M, lung): 1.63 µM
IC50 ([1]; PBMC, hematological): > 50 µM
IC50 ([1]; RD-ES, RDES, bone): > 50 µM
IC50 [2]: 0.0036 µM
